Source: the supplement of paper PMC10307832

Experiments:
Assay in all cases: relative viability (nuclei count vs DMSO), 5 days (fraction); higher = more cells survive
[1] = system: NCI-H647
In short: (§1)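 Lung cancer cell lines were pin-tool dosed in 1536-well plates on the day after seeding, with either a lone drug or a fixed anchor-drug dose plus five library-drug doses (not always all listed) in √10 steps. Nuclei were counted on 4× images after 5 days. Relative viability is the ratio of treated-well to vehicle-well nuclei counts, with each value a median of duplicate plates.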

[2] = system: NCI-H23
In short: as §1

[3] = system: NCI-H650
In short: as §1

[4] = system: NCI-H3122
In short: as §1

[5] = system: LCLC-103H
In short: as §1

[6] = system: BEN
In short: as §1

[7] = system: NCI-H2087
In short: as §1

[8] = system: NCI-H2023
In short: as §1

[9] = system: NCI-H1395
In short: as §1

[10] = system: LOU-NH91
In short: as §1

[11] = system: HARA
In short: as §1

[12] = system: NCI-H441
In short: as §1

[13] = system: NCI-H596
In short: as §1

[14] = system: NCI-H727
In short: as §1

[15] = system: NCI-H2347
In short: as §1

[16] = system: EMC-BAC-2
In short: as §1

[17] = system: NCI-H1993
In short: as §1

[18] = system: HCC-44
In short: as §1

[19] = system: 201T
In short: as §1

[20] = system: NCI-H838
In short: as §1

[21] = system: NCI-H2126
In short: as §1

O=c1cc(-c2cccc3c2Sc2ccccc2S3)oc(N2CCOCC2)c1 + Cc1nc(NC(=O)N2CCC[C@H]2C(N)=O)sc1-c1ccnc(C(C)(C)C(F)(F)F)c1 [Alpelisib] (partner 2 µM)
relative viability ([1]; first compound 0.08 µM): 1.4
relative viability ([1]; first compound 0.253 µM): 1.47
relative viability ([1]; first compound 0.8 µM): 1.31
relative viability ([1]; first compound 2.53 µM): 0.869
relative viability ([1]; first compound 8 µM): 0.977
relative viability ([2]; first compound 0.08 µM): 0.562
relative viability ([2]; first compound 0.253 µM): 0.801
relative viability ([2]; first compound 0.8 µM): 0.752
relative viability ([2]; first compound 2.53 µM): 0.603
relative viability ([2]; first compound 8 µM): 0.72
relative viability ([3]; first compound 0.08 µM): 1.1
relative viability ([3]; first compound 0.253 µM): 1.17
relative viability ([3]; first compound 0.8 µM): 1.11
relative viability ([3]; first compound 2.53 µM): 1.07
relative viability ([3]; first compound 8 µM): 1.08
relative viability ([4]; first compound 0.08 µM): 0.731
relative viability ([4]; first compound 0.253 µM): 0.902
relative viability ([4]; first compound 0.8 µM): 0.796
relative viability ([4]; first compound 2.53 µM): 0.746
relative viability ([4]; first compound 8 µM): 0.881
relative viability ([5]; first compound 0.08 µM): 0.994
relative viability ([5]; first compound 0.253 µM): 1.06
relative viability ([5]; first compound 0.8 µM): 0.837
relative viability ([5]; first compound 2.53 µM): 0.971
relative viability ([5]; first compound 8 µM): 0.963
relative viability ([6]; first compound 0.08 µM): 0.912
relative viability ([6]; first compound 0.253 µM): 1.06
relative viability ([6]; first compound 0.8 µM): 1.32
relative viability ([6]; first compound 2.53 µM): 1
relative viability ([6]; first compound 8 µM): 1.46
relative viability ([7]; first compound 0.08 µM): 1.22
relative viability ([7]; first compound 0.253 µM): 1.19
relative viability ([7]; first compound 0.8 µM): 1.09
relative viability ([7]; first compound 2.53 µM): 1.12
relative viability ([7]; first compound 8 µM): 1.03
relative viability ([8]; first compound 0.08 µM): 0.593
relative viability ([8]; first compound 0.253 µM): 0.82
relative viability ([8]; first compound 0.8 µM): 0.59
relative viability ([8]; first compound 2.53 µM): 0.57
relative viability ([8]; first compound 8 µM): 0.49
relative viability ([9]; first compound 0.08 µM): 1.13
relative viability ([9]; first compound 0.253 µM): 1.13
relative viability ([9]; first compound 0.8 µM): 1.19
relative viability ([9]; first compound 2.53 µM): 0.907
relative viability ([9]; first compound 8 µM): 1.05
relative viability ([10]; first compound 0.08 µM): 0.724
relative viability ([10]; first compound 0.253 µM): 0.764
relative viability ([10]; first compound 0.8 µM): 0.632
relative viability ([10]; first compound 2.53 µM): 0.593
relative viability ([10]; first compound 8 µM): 0.713
relative viability ([11]; first compound 0.08 µM): 0.754
relative viability ([11]; first compound 0.253 µM): 0.748
relative viability ([11]; first compound 0.8 µM): 0.719
relative viability ([11]; first compound 2.53 µM): 0.81
relative viability ([11]; first compound 8 µM): 0.584
relative viability ([12]; first compound 0.08 µM): 0.736
relative viability ([12]; first compound 0.253 µM): 0.933
relative viability ([12]; first compound 0.8 µM): 1.2
relative viability ([12]; first compound 2.53 µM): 0.551
relative viability ([12]; first compound 8 µM): 0.691
relative viability ([13]; first compound 0.08 µM): 0.588
relative viability ([13]; first compound 0.253 µM): 0.55
relative viability ([13]; first compound 0.8 µM): 0.5
relative viability ([13]; first compound 2.53 µM): 0.469
relative viability ([13]; first compound 8 µM): 0.594
relative viability ([14]; first compound 0.253 µM): 0.553
relative viability ([14]; first compound 2.53 µM): 0.47
relative viability ([14]; first compound 8 µM): 0.761
relative viability ([15]; first compound 0.08 µM): 1.03
relative viability ([15]; first compound 0.253 µM): 1.14
relative viability ([15]; first compound 0.8 µM): 1.1
relative viability ([15]; first compound 2.53 µM): 1.11
relative viability ([15]; first compound 8 µM): 1.16
relative viability ([16]; first compound 0.08 µM): 0.755
relative viability ([16]; first compound 0.253 µM): 0.799
relative viability ([16]; first compound 0.8 µM): 0.815
relative viability ([16]; first compound 2.53 µM): 0.71
relative viability ([16]; first compound 8 µM): 0.856
relative viability ([17]; first compound 0.08 µM): 0.735
relative viability ([17]; first compound 0.253 µM): 0.687
relative viability ([17]; first compound 0.8 µM): 0.69
relative viability ([17]; first compound 2.53 µM): 0.68
relative viability ([17]; first compound 8 µM): 0.718
relative viability ([18]; first compound 0.08 µM): 0.811
relative viability ([18]; first compound 0.253 µM): 0.904
relative viability ([18]; first compound 0.8 µM): 0.689
relative viability ([18]; first compound 2.53 µM): 0.685
relative viability ([18]; first compound 8 µM): 0.753
relative viability ([19]; first compound 0.08 µM): 0.98
relative viability ([19]; first compound 0.253 µM): 1.04
relative viability ([19]; first compound 0.8 µM): 1.02
relative viability ([19]; first compound 2.53 µM): 0.953
relative viability ([19]; first compound 8 µM): 0.913
relative viability ([20]; first compound 0.08 µM): 0.967
relative viability ([20]; first compound 0.253 µM): 1.33
relative viability ([20]; first compound 0.8 µM): 0.951
relative viability ([20]; first compound 2.53 µM): 0.903
relative viability ([20]; first compound 8 µM): 1.06
relative viability ([21]; first compound 0.08 µM): 0.827
relative viability ([21]; first compound 0.253 µM): 0.822
relative viability ([21]; first compound 0.8 µM): 0.734
relative viability ([21]; first compound 2.53 µM): 0.739
relative viability ([21]; first compound 8 µM): 0.735
